# Data taken from the NIST ThermoML archive (doi:10.1021/je060271a).
# Numbers after ± are expanded uncertainties.
# Settings: 343.15 K, Liquid, Vibrating tube method
smiles,measurement,setting,value
CCCCC(=O)OCC(COC(=O)CCCC)(COC(=O)CCCC)COC(=O)CCCC [pentaerythritol tetrapentanoate],mass density,5413.1 kPa,982.8 ± 1.2 kg/m3
same,mass density,5435 kPa,982.7 ± 1.2 kg/m3
same,mass density,5461.9 kPa,982.8 ± 1.2 kg/m3
same,mass density,5505.6 kPa,982.8 ± 1.2 kg/m3
same,mass density,5528.3 kPa,982.7 ± 1.2 kg/m3
same,mass density,5555.3 kPa,982.9 ± 1.2 kg/m3
same,mass density,5578.3 kPa,982.9 ± 1.2 kg/m3
same,mass density,5601.1 kPa,982.8 ± 1.2 kg/m3
same,mass density,5652.8 kPa,983 ± 1.2 kg/m3
same,mass density,6775.7 kPa,983.7 ± 1.2 kg/m3
same,mass density,6868.5 kPa,983.8 ± 1.2 kg/m3
same,mass density,7157.9 kPa,984.1 ± 1.2 kg/m3
same,mass density,7189.4 kPa,984.1 ± 1.2 kg/m3
same,mass density,7222 kPa,984.1 ± 1.2 kg/m3
same,mass density,7362.2 kPa,984.3 ± 1.2 kg/m3
same,mass density,7507.8 kPa,984.3 ± 1.2 kg/m3
same,mass density,7543.3 kPa,984.3 ± 1.2 kg/m3
same,mass density,7586.1 kPa,984.4 ± 1.2 kg/m3
same,mass density,7622 kPa,984.5 ± 1.2 kg/m3
same,mass density,7658.5 kPa,984.4 ± 1.2 kg/m3
same,mass density,7695.9 kPa,984.5 ± 1.2 kg/m3
same,mass density,7740.8 kPa,984.5 ± 1.2 kg/m3
same,mass density,7779.3 kPa,984.5 ± 1.2 kg/m3
same,mass density,7819 kPa,984.5 ± 1.2 kg/m3
same,mass density,7858.9 kPa,984.6 ± 1.2 kg/m3
same,mass density,7901.3 kPa,984.7 ± 1.2 kg/m3
same,mass density,7933.4 kPa,984.7 ± 1.2 kg/m3
same,mass density,7965.2 kPa,984.7 ± 1.2 kg/m3
same,mass density,7997.4 kPa,984.8 ± 1.2 kg/m3
same,mass density,8035.4 kPa,984.7 ± 1.2 kg/m3
same,mass density,8067.7 kPa,984.8 ± 1.2 kg/m3
same,mass density,8100.4 kPa,984.6 ± 1.2 kg/m3
same,mass density,8139.1 kPa,984.8 ± 1.2 kg/m3
same,mass density,8172.2 kPa,984.9 ± 1.2 kg/m3
same,mass density,8205.9 kPa,984.8 ± 1.2 kg/m3
same,mass density,8240 kPa,984.8 ± 1.2 kg/m3
same,mass density,8280.4 kPa,985 ± 1.2 kg/m3
same,mass density,8314.6 kPa,984.8 ± 1.2 kg/m3
same,mass density,8349.6 kPa,985 ± 1.2 kg/m3
same,mass density,8390.6 kPa,985.1 ± 1.2 kg/m3
same,mass density,8425.6 kPa,985 ± 1.2 kg/m3
same,mass density,8461.4 kPa,985 ± 1.2 kg/m3
same,mass density,8504.7 kPa,985.1 ± 1.2 kg/m3
same,mass density,8540.9 kPa,985 ± 1.2 kg/m3
same,mass density,8577.6 kPa,985.2 ± 1.2 kg/m3
same,mass density,8620.4 kPa,985.2 ± 1.2 kg/m3
same,mass density,8653.7 kPa,985.2 ± 1.2 kg/m3
same,mass density,8686.4 kPa,985.2 ± 1.2 kg/m3
same,mass density,8725.9 kPa,985.3 ± 1.2 kg/m3
same,mass density,8759 kPa,985.2 ± 1.2 kg/m3
same,mass density,8793.5 kPa,985.3 ± 1.2 kg/m3
same,mass density,8834.4 kPa,985.3 ± 1.2 kg/m3
same,mass density,8868.3 kPa,985.2 ± 1.2 kg/m3
same,mass density,8902.8 kPa,985.3 ± 1.2 kg/m3
same,mass density,8937.8 kPa,985.4 ± 1.2 kg/m3
same,mass density,8979.2 kPa,985.4 ± 1.2 kg/m3
same,mass density,9014.2 kPa,985.4 ± 1.2 kg/m3
same,mass density,9057.6 kPa,985.5 ± 1.2 kg/m3
same,mass density,9093 kPa,985.5 ± 1.2 kg/m3
same,mass density,9128.9 kPa,985.5 ± 1.2 kg/m3
same,mass density,9165.6 kPa,985.6 ± 1.2 kg/m3
same,mass density,9210.7 kPa,985.6 ± 1.2 kg/m3
same,mass density,9247.8 kPa,985.6 ± 1.2 kg/m3
same,mass density,9284.8 kPa,985.6 ± 1.2 kg/m3
same,mass density,9330.2 kPa,985.6 ± 1.2 kg/m3
same,mass density,9369.1 kPa,985.6 ± 1.2 kg/m3
same,mass density,9408.2 kPa,985.8 ± 1.2 kg/m3
same,mass density,9447.9 kPa,985.6 ± 1.2 kg/m3
same,mass density,9495.3 kPa,985.9 ± 1.2 kg/m3
same,mass density,9536.5 kPa,985.8 ± 1.2 kg/m3
same,mass density,9579.2 kPa,985.9 ± 1.2 kg/m3
same,mass density,9627.1 kPa,985.8 ± 1.2 kg/m3
same,mass density,9659.1 kPa,985.9 ± 1.2 kg/m3
same,mass density,9689.8 kPa,986 ± 1.2 kg/m3
same,mass density,9720.2 kPa,986 ± 1.2 kg/m3
same,mass density,9749.7 kPa,986 ± 1.2 kg/m3
same,mass density,9785.3 kPa,986 ± 1.2 kg/m3
same,mass density,9815.5 kPa,986.1 ± 1.2 kg/m3
same,mass density,9845.4 kPa,986.1 ± 1.2 kg/m3
same,mass density,9881.3 kPa,986.2 ± 1.2 kg/m3
same,mass density,9911.4 kPa,986.2 ± 1.2 kg/m3
same,mass density,9942.4 kPa,986.2 ± 1.2 kg/m3
same,mass density,9979.5 kPa,986.2 ± 1.2 kg/m3
same,mass density,10011 kPa,986.2 ± 1.2 kg/m3
same,mass density,10043 kPa,986.1 ± 1.2 kg/m3
same,mass density,10082 kPa,986.4 ± 1.2 kg/m3
same,mass density,10117 kPa,986.1 ± 1.2 kg/m3
same,mass density,10149 kPa,986.3 ± 1.2 kg/m3
same,mass density,10181 kPa,986.3 ± 1.2 kg/m3
same,mass density,10213 kPa,986.3 ± 1.2 kg/m3
same,mass density,10252 kPa,986.3 ± 1.2 kg/m3
same,mass density,10284 kPa,986.3 ± 1.2 kg/m3
same,mass density,10318 kPa,986.4 ± 1.2 kg/m3
same,mass density,10358 kPa,986.4 ± 1.2 kg/m3
same,mass density,10391 kPa,986.4 ± 1.2 kg/m3
same,mass density,10425 kPa,986.5 ± 1.2 kg/m3
same,mass density,10465 kPa,986.6 ± 1.2 kg/m3
same,mass density,10500 kPa,986.5 ± 1.2 kg/m3
same,mass density,10535 kPa,986.6 ± 1.2 kg/m3
same,mass density,10577 kPa,986.5 ± 1.2 kg/m3
same,mass density,10612 kPa,986.6 ± 1.2 kg/m3
same,mass density,10647 kPa,986.6 ± 1.2 kg/m3
same,mass density,10690 kPa,986.5 ± 1.2 kg/m3
same,mass density,10726 kPa,986.8 ± 1.2 kg/m3
same,mass density,10762 kPa,986.7 ± 1.2 kg/m3
same,mass density,10806 kPa,986.8 ± 1.2 kg/m3
same,mass density,10842 kPa,986.8 ± 1.2 kg/m3
same,mass density,10879 kPa,986.8 ± 1.2 kg/m3
same,mass density,10923 kPa,986.9 ± 1.2 kg/m3
same,mass density,10960 kPa,986.9 ± 1.2 kg/m3
same,mass density,10999 kPa,986.9 ± 1.2 kg/m3
same,mass density,11045 kPa,986.9 ± 1.2 kg/m3
same,mass density,11084 kPa,987 ± 1.2 kg/m3
same,mass density,11122 kPa,987.1 ± 1.2 kg/m3
same,mass density,11162 kPa,986.9 ± 1.2 kg/m3
same,mass density,11209 kPa,987 ± 1.2 kg/m3
same,mass density,11248 kPa,987.2 ± 1.2 kg/m3
same,mass density,11296 kPa,987.1 ± 1.2 kg/m3
same,mass density,11336 kPa,987.2 ± 1.2 kg/m3
same,mass density,11377 kPa,987.2 ± 1.2 kg/m3
same,mass density,11417 kPa,987.2 ± 1.2 kg/m3
same,mass density,11467 kPa,987.3 ± 1.2 kg/m3
same,mass density,11508 kPa,987.3 ± 1.2 kg/m3
same,mass density,11551 kPa,987.4 ± 1.2 kg/m3
same,mass density,11602 kPa,987.3 ± 1.2 kg/m3
same,mass density,11645 kPa,987.3 ± 1.2 kg/m3
same,mass density,11689 kPa,987.4 ± 1.2 kg/m3
same,mass density,11740 kPa,987.4 ± 1.2 kg/m3
same,mass density,11784 kPa,987.5 ± 1.2 kg/m3
same,mass density,11828 kPa,987.4 ± 1.2 kg/m3
same,mass density,11881 kPa,987.6 ± 1.2 kg/m3
same,mass density,11926 kPa,987.6 ± 1.2 kg/m3
same,mass density,11972 kPa,987.7 ± 1.2 kg/m3
same,mass density,12028 kPa,987.6 ± 1.2 kg/m3
same,mass density,12076 kPa,987.7 ± 1.2 kg/m3
same,mass density,12126 kPa,987.7 ± 1.2 kg/m3
same,mass density,12187 kPa,987.8 ± 1.2 kg/m3
same,mass density,12237 kPa,987.9 ± 1.2 kg/m3
same,mass density,12270 kPa,988 ± 1.2 kg/m3
same,mass density,12298 kPa,987.8 ± 1.2 kg/m3
same,mass density,12322 kPa,987.9 ± 1.2 kg/m3
same,mass density,12346 kPa,987.8 ± 1.2 kg/m3
same,mass density,12374 kPa,988 ± 1.2 kg/m3
same,mass density,12398 kPa,987.9 ± 1.2 kg/m3
same,mass density,12423 kPa,988 ± 1.2 kg/m3
same,mass density,12452 kPa,987.9 ± 1.2 kg/m3
same,mass density,12476 kPa,988.1 ± 1.2 kg/m3
same,mass density,12501 kPa,988.1 ± 1.2 kg/m3
same,mass density,12530 kPa,988 ± 1.2 kg/m3
same,mass density,12555 kPa,988 ± 1.2 kg/m3
same,mass density,12580 kPa,988 ± 1.2 kg/m3
same,mass density,12610 kPa,988 ± 1.2 kg/m3
same,mass density,12636 kPa,988 ± 1.2 kg/m3
same,mass density,12660 kPa,988.1 ± 1.2 kg/m3
same,mass density,12691 kPa,988.1 ± 1.2 kg/m3
same,mass density,12717 kPa,988.2 ± 1.2 kg/m3
same,mass density,12742 kPa,988.1 ± 1.2 kg/m3
same,mass density,12773 kPa,988.2 ± 1.2 kg/m3
same,mass density,12799 kPa,988.2 ± 1.2 kg/m3
same,mass density,12824 kPa,988.3 ± 1.2 kg/m3
same,mass density,12856 kPa,988.3 ± 1.2 kg/m3
